# In PMC6275946 (ACS Omega, 2018):
# What was measured:
# [1] = biological target: SHP2 (Src-homology-2-domain-containing PTP 2) (Homo sapiens, UniProt Q06124); assay: LC-MS/MS of covalent cysteine labeling; type: biochemical
# [2] = biological target: T1, SHP1 (Src-homology-2-domain containing protein tyrosine phosphatase 1) (Homo sapiens, UniProt P29350); assay: pNPP phosphatase assay, […] compound, […] h preincubation at […] °C; type: biochemical
# T1 sequence (P29350 244-515 limits assumed): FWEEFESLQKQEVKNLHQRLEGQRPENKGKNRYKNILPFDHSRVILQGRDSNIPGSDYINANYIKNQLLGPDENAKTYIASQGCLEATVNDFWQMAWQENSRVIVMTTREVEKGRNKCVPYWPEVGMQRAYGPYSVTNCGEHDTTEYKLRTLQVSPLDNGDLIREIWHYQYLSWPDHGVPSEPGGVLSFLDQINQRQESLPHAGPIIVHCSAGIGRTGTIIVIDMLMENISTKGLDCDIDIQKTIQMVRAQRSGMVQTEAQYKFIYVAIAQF
# Chain of SHP2 (Src-homology-2-domain-containing PTP 2) (Q06124 1-541): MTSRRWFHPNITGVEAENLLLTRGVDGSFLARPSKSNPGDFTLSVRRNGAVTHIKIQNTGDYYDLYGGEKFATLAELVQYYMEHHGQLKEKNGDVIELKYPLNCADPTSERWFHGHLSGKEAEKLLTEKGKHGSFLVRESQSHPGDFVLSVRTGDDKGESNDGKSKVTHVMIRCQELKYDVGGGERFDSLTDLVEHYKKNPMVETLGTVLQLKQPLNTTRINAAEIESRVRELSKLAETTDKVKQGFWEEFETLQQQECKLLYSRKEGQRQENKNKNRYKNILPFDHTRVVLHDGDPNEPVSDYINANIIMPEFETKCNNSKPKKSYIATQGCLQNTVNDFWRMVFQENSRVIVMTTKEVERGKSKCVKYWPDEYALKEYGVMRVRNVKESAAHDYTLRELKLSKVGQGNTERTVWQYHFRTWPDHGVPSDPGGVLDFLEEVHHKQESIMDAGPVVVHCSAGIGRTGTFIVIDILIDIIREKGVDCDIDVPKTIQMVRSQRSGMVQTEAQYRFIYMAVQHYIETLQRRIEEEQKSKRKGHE
smiles,measurement,setting,value
"C=CC(=O)Nc1ccnc2ccccc12 [compound 12, N-(Quinolin-4-yl)prop-2-enamide]",IC50,[1],~35 µM
same,"pNPP phosphatase assay, 50 μM compound, 4 h preincubation at 37 °C",[2],"the only two human PTPs that have cysteine at this position, SHP2 and SHP1, are sensitive to inhibition"
